Assay results reported in ChEMBL document CHEMBL1201862, “PubChem BioAssay data set” (2004).
Calls of active or inactive are those of the source.

What was measured:
[1] = molecular target: Aryl hydrocarbon receptor (Homo sapiens, UniProt P35869); assay: Luminescence-based cell-based high throughput dose response assay for activators of the Aryl Hydrocarbon Receptor (AHR). [Related pubchem assays: 2796 (Primary screen (AHR activators in singlicate)), 2845 (Confirmation screen (AHR activators in triplicate)), 434939 (Counterscreen (PXR activators in triplicate)), 2804 (Summary (AHR activators))]; format: ADME
Aryl hydrocarbon receptor, sequence (P35869 whole entry): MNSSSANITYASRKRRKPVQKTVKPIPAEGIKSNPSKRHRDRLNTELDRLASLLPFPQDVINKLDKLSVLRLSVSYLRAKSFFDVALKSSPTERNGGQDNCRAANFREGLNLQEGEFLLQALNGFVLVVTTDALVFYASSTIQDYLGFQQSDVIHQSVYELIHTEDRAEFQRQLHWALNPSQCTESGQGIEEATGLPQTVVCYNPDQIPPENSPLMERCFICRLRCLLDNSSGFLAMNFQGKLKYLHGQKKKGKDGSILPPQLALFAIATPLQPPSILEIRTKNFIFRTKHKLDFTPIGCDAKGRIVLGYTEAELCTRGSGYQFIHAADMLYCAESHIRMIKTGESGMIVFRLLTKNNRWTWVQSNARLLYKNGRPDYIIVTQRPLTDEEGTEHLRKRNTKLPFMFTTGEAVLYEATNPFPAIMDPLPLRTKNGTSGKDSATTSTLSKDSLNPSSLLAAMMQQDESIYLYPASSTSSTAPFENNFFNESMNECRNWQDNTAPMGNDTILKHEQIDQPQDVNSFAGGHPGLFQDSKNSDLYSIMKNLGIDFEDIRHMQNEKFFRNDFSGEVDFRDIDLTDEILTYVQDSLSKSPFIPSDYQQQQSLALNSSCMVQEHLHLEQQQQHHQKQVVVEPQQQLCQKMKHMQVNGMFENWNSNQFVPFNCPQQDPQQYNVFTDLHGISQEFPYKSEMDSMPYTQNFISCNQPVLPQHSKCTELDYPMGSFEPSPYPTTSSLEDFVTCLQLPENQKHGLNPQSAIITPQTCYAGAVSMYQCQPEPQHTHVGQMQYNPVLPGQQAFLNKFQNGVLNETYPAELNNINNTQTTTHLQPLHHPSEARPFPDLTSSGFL

[2] = Counterscreen for IDE inhibitors: Luminescence-based cell-based high throughput dose response assay to identify compounds that are cytotoxic to HEK cells. [Related pubchem assays: 434962 (Primary screen (IDE inhibitors in singlicate)), 449730 (Counterscreen (Cytotoxicity in triplicate)), 435028 (Confirmation (IDE inhibitors in triplicate)) …; format: functional; conditions: HEK293
Insulin-degrading enzyme = molecular target: T1, Insulin-degrading enzyme (Homo sapiens, UniProt P14735); assay: Dose Response: Fluorescence polarization-based cell-based high throughput dose response assay for inhibitors of insulin-degrading enzyme (IDE). [Related pubchem assays: 434962 (Primary screen (IDE inhibitors in singlicate)), 449730 (Counterscreen (Cytotoxicity in triplicate)), 435028 (Confirmation (IDE inhibitors in triplicate)), 434984 (Summary …; format: functional
T1 sequence (P14735 whole entry): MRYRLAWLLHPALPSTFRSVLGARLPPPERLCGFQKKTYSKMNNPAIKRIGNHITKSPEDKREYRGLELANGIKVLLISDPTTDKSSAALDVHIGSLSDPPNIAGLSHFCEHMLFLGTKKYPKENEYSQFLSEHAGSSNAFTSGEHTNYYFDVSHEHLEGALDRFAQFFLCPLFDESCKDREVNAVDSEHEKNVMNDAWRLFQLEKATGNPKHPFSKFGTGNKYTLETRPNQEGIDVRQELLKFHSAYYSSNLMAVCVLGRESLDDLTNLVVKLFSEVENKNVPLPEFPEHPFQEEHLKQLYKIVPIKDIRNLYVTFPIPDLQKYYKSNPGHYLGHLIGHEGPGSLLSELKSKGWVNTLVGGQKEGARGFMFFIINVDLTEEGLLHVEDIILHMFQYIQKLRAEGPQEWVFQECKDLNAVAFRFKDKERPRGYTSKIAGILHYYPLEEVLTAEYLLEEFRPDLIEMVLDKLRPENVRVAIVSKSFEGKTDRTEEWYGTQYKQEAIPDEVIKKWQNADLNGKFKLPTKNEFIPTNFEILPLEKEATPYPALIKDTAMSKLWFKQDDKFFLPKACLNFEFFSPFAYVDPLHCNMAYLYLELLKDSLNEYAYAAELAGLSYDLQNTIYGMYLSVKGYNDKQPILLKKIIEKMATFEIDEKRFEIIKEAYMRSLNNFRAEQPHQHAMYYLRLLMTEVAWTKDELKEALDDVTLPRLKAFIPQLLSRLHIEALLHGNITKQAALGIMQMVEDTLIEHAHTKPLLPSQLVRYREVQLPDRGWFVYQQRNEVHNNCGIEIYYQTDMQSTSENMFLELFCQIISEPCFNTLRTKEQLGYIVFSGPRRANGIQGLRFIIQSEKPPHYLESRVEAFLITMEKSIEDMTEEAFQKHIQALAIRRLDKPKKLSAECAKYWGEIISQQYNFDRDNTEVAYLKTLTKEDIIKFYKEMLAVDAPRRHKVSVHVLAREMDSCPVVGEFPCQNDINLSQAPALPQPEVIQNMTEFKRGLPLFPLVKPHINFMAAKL

Protein Rev = Protein Rev (Human immunodeficiency virus type 1 group M subtype B (isolate WMJ22)(HIV-1), UniProt P05866); assay: inhibitors of Rev protein–RRE RNA complex – biochemical, protein-RNA interaction, dose response (AID 842); design: species or system Human immunodeficiency virus 1
Protein Rev, sequence (P05866 whole entry): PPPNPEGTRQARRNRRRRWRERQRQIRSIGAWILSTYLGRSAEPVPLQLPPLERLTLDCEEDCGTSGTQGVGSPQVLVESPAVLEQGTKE

[3] = viability loss in Vero cells – cytotoxicity control for Vif-APOBEC3G degradation inhibitor project, dose response (AID 1117358); format: functional; conditions: Vero
Oxytocin receptor = Oxytocin receptor (Homo sapiens, UniProt P30559); assay: Counterscreen for vasopressin 1 receptor (V1R) agonists: Fluorescence-based cell-based high throughput dose response assay for agonists of the Oxytocin Receptor (OXTR). [Related pubchem assays: 2435 (Primary screen (OXTR agonists in singlicate)), 434964 (Confirmation screen (V1R agonists in triplicate)), 434969 (Counterscreen (OXTR agonists in …; format: functional
Oxytocin receptor, sequence (P30559 whole entry): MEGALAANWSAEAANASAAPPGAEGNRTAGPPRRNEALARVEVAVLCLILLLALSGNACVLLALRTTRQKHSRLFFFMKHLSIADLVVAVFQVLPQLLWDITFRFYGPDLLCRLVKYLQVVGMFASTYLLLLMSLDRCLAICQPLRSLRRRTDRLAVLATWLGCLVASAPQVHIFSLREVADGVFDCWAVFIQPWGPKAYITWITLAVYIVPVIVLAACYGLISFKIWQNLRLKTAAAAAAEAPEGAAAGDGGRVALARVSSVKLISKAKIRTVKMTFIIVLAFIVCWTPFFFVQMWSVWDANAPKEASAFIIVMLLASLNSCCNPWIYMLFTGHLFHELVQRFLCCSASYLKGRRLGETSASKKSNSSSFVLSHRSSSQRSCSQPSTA

Vasopressin V1a receptor = Vasopressin V1a receptor (Homo sapiens, UniProt P37288); assay: Fluorescence-based cell-based high throughput dose response screening assay for agonists of the vasopressin 1 receptor (V1R).; format: functional
Vasopressin V1a receptor, sequence (P37288 whole entry): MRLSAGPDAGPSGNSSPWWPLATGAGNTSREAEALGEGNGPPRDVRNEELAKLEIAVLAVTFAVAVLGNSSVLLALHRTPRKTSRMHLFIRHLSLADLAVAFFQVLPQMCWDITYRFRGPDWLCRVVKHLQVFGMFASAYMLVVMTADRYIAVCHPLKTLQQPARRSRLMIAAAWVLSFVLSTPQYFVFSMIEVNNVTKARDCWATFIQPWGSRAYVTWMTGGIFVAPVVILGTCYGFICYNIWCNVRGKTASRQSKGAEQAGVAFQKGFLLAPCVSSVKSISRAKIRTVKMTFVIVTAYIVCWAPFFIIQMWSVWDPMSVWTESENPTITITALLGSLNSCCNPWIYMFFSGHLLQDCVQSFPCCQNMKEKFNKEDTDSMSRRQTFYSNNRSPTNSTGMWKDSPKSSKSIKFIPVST

[4] = Luminescence Cell-Based Dose Retest to Confirm Inhibitors of Cancer Stem Cells. [Related pubchem assays (depositor defined):AID2717, AID2721]; format: functional; conditions: Homo sapiens
Leucine aminopeptidase = molecular target: T2, Leucine aminopeptidase (Plasmodium falciparum 3D7, UniProt Q8IL11); assay: P. falciparum M17LAP inhibitors, primary screen, biochemical, fluorogenic H-Leu-NHMec substrate, 1536-well (AID 1619); format: functional
T2 sequence (Q8IL11 whole entry): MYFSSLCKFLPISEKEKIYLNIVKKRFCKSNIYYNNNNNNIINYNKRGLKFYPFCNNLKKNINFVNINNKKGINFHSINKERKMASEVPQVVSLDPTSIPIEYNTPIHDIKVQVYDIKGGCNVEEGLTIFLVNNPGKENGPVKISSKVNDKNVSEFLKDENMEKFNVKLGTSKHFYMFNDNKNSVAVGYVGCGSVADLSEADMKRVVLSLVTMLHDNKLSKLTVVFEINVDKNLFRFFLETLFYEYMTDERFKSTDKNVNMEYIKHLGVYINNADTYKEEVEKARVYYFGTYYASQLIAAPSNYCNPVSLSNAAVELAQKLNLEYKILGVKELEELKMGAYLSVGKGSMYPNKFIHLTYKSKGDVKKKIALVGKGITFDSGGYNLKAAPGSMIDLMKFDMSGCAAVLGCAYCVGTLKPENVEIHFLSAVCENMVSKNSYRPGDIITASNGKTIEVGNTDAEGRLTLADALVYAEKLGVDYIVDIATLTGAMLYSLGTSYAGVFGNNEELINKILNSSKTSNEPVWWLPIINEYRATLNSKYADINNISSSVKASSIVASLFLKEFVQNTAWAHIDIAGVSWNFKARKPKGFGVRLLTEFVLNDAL

Bcl-2-like protein 10 = molecular target: T3, Bcl-2-like protein 10 (Homo sapiens, UniProt Q9HD36); assay: Bcl-B/TR3 peptide binding disruption – biochemical, fluorescence polarization, FITC-TR3 peptide, selectivity assay for Bfl-1 inhibitor project, primary screen (AID 748);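 also: fluorescence polarization from a fluorescein-labelled TR3 peptide binding purified Bcl-B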
T3 sequence (Q9HD36 whole entry): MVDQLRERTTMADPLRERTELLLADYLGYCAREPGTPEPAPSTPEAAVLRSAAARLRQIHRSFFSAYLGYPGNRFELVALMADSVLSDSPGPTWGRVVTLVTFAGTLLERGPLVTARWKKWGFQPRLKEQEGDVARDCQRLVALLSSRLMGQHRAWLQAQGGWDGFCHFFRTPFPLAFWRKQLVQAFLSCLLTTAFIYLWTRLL

Aspartyl aminopeptidase = Aspartyl aminopeptidase (Plasmodium falciparum 3D7, UniProt Q8I2J3)
Aspartyl aminopeptidase, sequence (Q8I2J3 whole entry): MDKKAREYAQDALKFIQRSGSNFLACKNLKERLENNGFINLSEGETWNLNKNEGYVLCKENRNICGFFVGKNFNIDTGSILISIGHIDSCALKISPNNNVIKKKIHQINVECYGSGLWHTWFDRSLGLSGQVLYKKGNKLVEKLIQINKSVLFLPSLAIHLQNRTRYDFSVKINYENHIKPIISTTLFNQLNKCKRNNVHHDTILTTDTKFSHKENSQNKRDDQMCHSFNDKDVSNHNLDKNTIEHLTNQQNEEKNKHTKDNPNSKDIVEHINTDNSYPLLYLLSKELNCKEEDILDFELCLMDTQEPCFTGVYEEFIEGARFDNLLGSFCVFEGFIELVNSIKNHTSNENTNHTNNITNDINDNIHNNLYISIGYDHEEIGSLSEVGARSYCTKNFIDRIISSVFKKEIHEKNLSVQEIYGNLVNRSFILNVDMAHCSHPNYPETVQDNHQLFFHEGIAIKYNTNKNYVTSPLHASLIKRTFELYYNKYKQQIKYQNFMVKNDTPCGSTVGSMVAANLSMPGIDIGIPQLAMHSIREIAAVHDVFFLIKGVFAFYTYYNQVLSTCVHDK

Procathepsin L = Procathepsin L (Homo sapiens, UniProt P07711)
Procathepsin L, sequence (P07711 whole entry): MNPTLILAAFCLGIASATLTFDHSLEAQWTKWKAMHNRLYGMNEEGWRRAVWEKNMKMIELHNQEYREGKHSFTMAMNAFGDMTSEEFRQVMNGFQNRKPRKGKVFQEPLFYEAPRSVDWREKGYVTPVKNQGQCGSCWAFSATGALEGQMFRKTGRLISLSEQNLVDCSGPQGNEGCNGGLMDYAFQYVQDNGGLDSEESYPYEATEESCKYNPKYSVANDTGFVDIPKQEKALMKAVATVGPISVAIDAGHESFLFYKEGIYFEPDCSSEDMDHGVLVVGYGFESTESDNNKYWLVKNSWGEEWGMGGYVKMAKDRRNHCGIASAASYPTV

Large T antigen = Large T antigen (Simian virus 40, UniProt P03070); format: functional, Betapolyomavirus macacae;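 also: Confirmatory-stage PubChem screen for compounds that inhibit SV40 T antigen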
Large T antigen, sequence (P03070 whole entry): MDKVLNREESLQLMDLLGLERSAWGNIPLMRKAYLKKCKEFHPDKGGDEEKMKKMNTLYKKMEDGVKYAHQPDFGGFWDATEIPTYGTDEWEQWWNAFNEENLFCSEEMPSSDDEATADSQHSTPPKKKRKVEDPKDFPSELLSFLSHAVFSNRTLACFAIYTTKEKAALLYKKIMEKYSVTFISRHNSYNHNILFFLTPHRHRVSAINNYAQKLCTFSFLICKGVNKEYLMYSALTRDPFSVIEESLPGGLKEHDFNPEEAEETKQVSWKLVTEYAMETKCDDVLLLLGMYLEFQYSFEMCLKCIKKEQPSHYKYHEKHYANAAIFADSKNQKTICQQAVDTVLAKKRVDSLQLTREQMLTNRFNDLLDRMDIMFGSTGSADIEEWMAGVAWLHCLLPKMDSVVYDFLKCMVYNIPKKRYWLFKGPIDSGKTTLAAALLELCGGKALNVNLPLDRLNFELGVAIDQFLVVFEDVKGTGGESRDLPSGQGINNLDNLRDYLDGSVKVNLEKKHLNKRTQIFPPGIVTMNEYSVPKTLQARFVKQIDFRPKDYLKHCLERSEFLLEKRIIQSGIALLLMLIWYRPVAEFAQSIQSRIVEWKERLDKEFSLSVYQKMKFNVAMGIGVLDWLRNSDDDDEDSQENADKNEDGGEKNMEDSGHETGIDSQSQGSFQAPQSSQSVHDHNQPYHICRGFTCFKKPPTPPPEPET

Estrogen receptor beta [5] = molecular target: T4, Estrogen receptor beta (Homo sapiens, UniProt Q92731);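 also: recombinant ER-beta bound to coactivator SRC1 peptide in presence of estradiol agonist; inhibitors block coactivator peptide binding and lower the FRET signal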
T4 sequence (Q92731 whole entry): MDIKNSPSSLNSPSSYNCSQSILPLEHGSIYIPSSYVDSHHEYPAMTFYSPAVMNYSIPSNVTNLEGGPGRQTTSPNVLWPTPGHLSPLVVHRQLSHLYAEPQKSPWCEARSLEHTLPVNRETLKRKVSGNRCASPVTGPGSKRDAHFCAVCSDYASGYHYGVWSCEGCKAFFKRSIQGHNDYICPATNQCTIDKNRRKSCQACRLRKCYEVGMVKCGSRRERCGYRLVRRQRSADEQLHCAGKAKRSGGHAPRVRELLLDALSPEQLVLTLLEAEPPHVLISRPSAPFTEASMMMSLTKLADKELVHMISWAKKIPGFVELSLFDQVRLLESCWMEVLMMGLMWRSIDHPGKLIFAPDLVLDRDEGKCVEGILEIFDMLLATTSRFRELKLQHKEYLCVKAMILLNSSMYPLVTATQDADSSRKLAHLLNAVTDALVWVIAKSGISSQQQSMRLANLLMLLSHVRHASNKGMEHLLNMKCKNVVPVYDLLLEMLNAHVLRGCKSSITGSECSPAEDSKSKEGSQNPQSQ

Estrogen receptor beta [6] = molecular target: T4, Estrogen receptor beta; assay: blockers of SRC-3 recruitment to ERβ – biochemical, ELISA, streptavidin-HRP readout, orthogonal assay, confirmation (AID 1060)
[7] = molecular target: Neuropeptide Y receptor type 2 (Homo sapiens, UniProt P49146); assay: IC50 for human NPY-Y2 blockade – cell-based, counter-screen for NPY-Y1 antagonist project, dose response (AID 1278); format: functional
Neuropeptide Y receptor type 2, sequence (P49146 whole entry): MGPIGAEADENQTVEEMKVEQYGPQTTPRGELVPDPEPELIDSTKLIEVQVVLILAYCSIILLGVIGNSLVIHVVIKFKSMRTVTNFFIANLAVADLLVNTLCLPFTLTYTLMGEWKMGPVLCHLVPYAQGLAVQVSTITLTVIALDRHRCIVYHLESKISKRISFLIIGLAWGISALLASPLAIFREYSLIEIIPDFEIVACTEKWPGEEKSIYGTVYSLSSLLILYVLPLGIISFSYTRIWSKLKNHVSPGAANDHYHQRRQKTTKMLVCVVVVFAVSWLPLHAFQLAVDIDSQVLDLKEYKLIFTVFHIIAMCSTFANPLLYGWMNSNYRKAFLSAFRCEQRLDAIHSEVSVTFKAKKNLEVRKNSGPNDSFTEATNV

[8] = molecular target: Neuropeptide Y receptor type 1 (Homo sapiens, UniProt P25929); assay: IC50 of human NPY-Y1 blockers – cell-based, dose response (AID 1277); format: functional
[9] = luciferase reporter signal suppression in cells – H4 neuroglioma cells, luminescence, dose response (AID 1990); format: functional, cell-based
[10] = luciferase reporter signal reduction – luminescence, H4-C neuroglioblastoma cells, dose response (AID 2458); format: functional, cell-based;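 also: H4 neuroglioblastoma cells stably carrying a luciferase reporter gene fusion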
BJ [11] = assay: BJ-TERT fibroblast viability loss – cell-based, RAS-independent, luminescence, dose response (AID 1933); format: functional; conditions: Homo sapiens
cells = format: functional, cell-based
[12] = Luminescence Cell-Based Dose Response HTS to Identify Inhibitors of 5'UTR Stem-Loop Driven Prion Protein mRNA Translation in H4 Neuroglioblastoma Cells. [Related pubchem assays: 1827 (Project Summary), 1813 (Primary HTS)]; format: functional
[13] = alpha-synuclein stem-loop luciferase translation blockers – H4 neuroglioma cells, luminescence, confirmation (AID 1988); format: functional, cell-based
BJ [14] = assay: cells; format: functional, cell-based; conditions: Homo sapiens
BJ [15] = assay: BJ-TERT-LT-ST fibroblast viability loss – cell-based, RAS-independent, luminescence, dose response (AID 1935); format: functional; conditions: Homo sapiens;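 also: BJ fibroblasts immortalized with TERT plus LT and ST oncogenes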
[16] = DRD fibroblast viability loss – cell-based, non-viral oncogenic, luminescence, dose response (AID 1934); format: functional; conditions: Homo sapiens
[17] = alpha-synuclein stem-loop translation blockers – luminescence, H4 neuroglioblastoma cells, dose confirmation, confirmation (AID 2454); format: functional, cell-based;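 also: H4 neuroglioblastoma cells carrying an alpha-synuclein 5'UTR luciferase reporter; potency for inhibition of the luciferase signal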
[18] = HEK-293T viability loss after treatment – luminescence, T-cell screen hits, cytotoxicity control for TCR NF-kB inhibitor project, dose response (AID 489026); format: functional, cell-based;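 also: cells exposed to compound about 14 hours before the viability readout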
Paired box protein Pax-8 = Paired box protein Pax-8 (Homo sapiens, UniProt Q06710); assay: PAX8 transcriptional activity inhibition in RMG-I – RMG-I cells, luciferase, cherry-pick, dose response (AID 687027); format: functional, cell-based;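 also: luciferase reporter driven by Pax8 target thyroperoxidase promoter measured by SteadyGlo luminescence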
Paired box protein Pax-8, sequence (Q06710 whole entry): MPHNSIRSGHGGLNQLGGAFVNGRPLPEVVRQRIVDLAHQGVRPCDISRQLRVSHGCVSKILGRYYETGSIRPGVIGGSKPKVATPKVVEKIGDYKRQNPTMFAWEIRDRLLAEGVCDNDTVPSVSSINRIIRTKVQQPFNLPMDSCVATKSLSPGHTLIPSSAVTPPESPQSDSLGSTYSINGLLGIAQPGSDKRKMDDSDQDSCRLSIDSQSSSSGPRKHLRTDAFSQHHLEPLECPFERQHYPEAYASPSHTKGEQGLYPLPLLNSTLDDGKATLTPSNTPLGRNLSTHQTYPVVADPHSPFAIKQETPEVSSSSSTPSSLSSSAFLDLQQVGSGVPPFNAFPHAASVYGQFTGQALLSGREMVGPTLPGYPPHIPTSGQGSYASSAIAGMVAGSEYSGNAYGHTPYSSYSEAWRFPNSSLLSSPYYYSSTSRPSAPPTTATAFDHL

O=C(Nc1cccc(-c2nc3cc(Cl)ccc3o2)c1)C1CCCO1 (centres undefined)
EC50 [1]: 2.58 µM (active)

CCOc1ccc(N2C(=O)S/C(=C\c3ccc(O)c(OC)c3)C2=O)cc1
IC50 [2]: > 55.7 µM (not active) | IC50 (Insulin-degrading enzyme): 29.8 µM (not active)

CCN(CC)CCNC1=NCCn2c1cc1cc(OC)ccc12
IC50 (Protein Rev): > 79.4 µM (not active) | CC50 [3]: > 40 µM (active)

CCc1ccc(N=Nc2ccc(O)c3[nH]cnc23)cc1
EC50 (Oxytocin receptor): > 29.9 µM (not active) | EC50 (Vasopressin V1a receptor): > 29.9 µM (not active) | AC50 [4]: 0.996 µM (active)

O=C(CSc1nc(O)c2ccccc2n1)c1ccc(O)c(O)c1
IC50 (Leucine aminopeptidase): 13 µM (active) | IC50 (Bcl-2-like protein 10): 23.4 µM (active) | IC50 (Aspartyl aminopeptidase): 1.46 µM (active) | IC50 (Procathepsin L): > 59.6 µM (not active) | IC50 (Large T antigen): 10.7 µM (active) | IC50 (Estrogen receptor beta [5]): 4.62 µM (active) | IC50 (Estrogen receptor beta [6]): 0.337 µM (not active)

CCOC(=O)C(/C=N/c1cc(C)nn1-c1ccc(Cl)cc1)=C(\O)OCC
IC50 [7]: 30.6 µM (not active) | IC50 [8]: 18.9 µM (not active)

COc1cc2c(c(OC)c1OC)-c1ccc(O)cc1[C@@H](NC(C)=O)CC2 [N-ACETYLCOLCHINOL]
EC50 [9]: < 0.1 µM (active) | EC50 [10]: 0.088 µM (active) | EC50 (BJ [11]): 0.193 µM (active) | EC50 (cells): 0.1 µM (active) | EC50 [12]: < 0.1 µM (active) | EC50 [13]: < 0.1 µM (active) | EC50 (BJ [14]): 0.345 µM (inconclusive) | EC50 (BJ [15]): 0.146 µM (inconclusive) | EC50 [16]: 0.201 µM (active) | EC50 [17]: 0.072 µM (active) | IC50 [18]: > 80 µM (inactive) | AC50 (Paired box protein Pax-8): 0.37 µM (active)
